Experimental data taken from patent US10758534B2 (Vertex Pharmaceuticals Incorporated, priority 2014, dated 2020).
Where two headings read alike, the source gives them in different places.

Molecular target: T1, F508del (Homo sapiens, UniProt P13569, DEL508-508)
T1 construct: expressed in transfected cells
Assay: Protocol 2: FRET membrane potential optical assay (VIPR), identification of correction compounds
Assay type: cell-based
Method in brief: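 Mouse NIH3T3 cells, stable F508del; cpd 16 hrs, 37° C., serum-free; pos ctrl 27° C. 16 hrs. Rinse in Krebs Ringers, dye load, then add 10 μM forskolin + 20 μM genistein with Cl^−-free (gluconate) medium; depolarization by FRET voltage dyes.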

[1] = F508del CFTR modulator activity, compounds of Table 1, read-out: EC30
[2] = Table 3, compounds of Table 1 as modulators of CFTR activity, protocol not stated

T1 sequence (P13569 with tags, fused parts or gaps DEL508-508): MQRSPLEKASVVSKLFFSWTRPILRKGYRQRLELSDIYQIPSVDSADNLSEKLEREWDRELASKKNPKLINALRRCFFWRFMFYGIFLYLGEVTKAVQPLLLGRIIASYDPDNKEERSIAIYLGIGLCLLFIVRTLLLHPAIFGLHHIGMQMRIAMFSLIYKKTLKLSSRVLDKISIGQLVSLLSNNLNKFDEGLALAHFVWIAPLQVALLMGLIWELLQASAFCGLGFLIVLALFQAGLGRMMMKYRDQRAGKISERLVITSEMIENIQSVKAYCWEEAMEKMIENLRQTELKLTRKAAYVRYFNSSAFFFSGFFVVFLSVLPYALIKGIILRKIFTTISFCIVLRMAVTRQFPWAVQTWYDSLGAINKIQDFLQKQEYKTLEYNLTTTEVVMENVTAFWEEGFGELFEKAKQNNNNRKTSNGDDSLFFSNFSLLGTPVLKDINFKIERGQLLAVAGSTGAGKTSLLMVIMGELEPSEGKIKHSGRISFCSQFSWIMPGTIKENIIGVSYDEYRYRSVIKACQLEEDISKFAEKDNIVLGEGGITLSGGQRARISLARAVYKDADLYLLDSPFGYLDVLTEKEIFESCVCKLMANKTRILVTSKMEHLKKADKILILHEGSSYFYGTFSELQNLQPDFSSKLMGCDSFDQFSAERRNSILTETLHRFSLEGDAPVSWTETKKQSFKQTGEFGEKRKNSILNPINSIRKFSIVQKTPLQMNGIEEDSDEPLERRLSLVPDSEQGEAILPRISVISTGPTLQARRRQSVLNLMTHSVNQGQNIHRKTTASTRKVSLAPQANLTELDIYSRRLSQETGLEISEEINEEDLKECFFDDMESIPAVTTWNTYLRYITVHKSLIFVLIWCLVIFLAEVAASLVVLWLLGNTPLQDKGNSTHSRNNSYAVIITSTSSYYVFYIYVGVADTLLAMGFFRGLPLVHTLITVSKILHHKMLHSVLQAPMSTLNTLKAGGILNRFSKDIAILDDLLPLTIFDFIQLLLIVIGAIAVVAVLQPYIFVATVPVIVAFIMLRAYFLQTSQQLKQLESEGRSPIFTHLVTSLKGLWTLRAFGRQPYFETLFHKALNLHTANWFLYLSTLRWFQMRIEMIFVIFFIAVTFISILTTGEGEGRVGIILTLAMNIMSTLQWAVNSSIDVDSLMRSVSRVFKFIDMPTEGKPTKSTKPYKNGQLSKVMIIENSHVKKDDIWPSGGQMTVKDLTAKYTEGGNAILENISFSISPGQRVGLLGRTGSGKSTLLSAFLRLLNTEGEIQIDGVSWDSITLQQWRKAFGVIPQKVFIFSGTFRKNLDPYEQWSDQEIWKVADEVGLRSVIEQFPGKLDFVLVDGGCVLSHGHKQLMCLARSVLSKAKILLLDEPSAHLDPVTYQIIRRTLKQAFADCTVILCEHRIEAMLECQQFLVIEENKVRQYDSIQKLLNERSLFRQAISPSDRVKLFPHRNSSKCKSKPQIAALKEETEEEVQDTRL

| EC30 [1] | EC30 [2] | SMILES |
| --- | --- | --- |
| < 3 µM |  | CCN(CC)c1ccc(Nc2cccc(S(=O)(=O)NC(=O)c3cccnc3N3CC(C)CC3(C)C)n2)cc1 (centres unmarked) [Compound 2531, N—[[6-[4-(diethylamino)anilino]-2-pyridyl]sulfonyl]-2-(2,2,4-trimethylpyrrolidin-1-yl)pyridine-3-carboxamide] |
|  | +++ (“+++” means <3 uM) | C[C@@H]1CC[C@H](C)N1c1nc(-c2cc(F)cc(OCC(C)(C)C)c2)ccc1C(=O)NS(=O)(=O)c1ccc[nH]c1=O [Compound 572, 6-[3-(2,2-dimethylpropoxy)-5-fluoro-phenyl]-2-[(2S,5R)-2,5-dimethylpyrrolidin-1-yl]-N-[(2-oxo-1H-pyridin-3-yl)sulfonyl]pyridine-3-carboxamide] |
| < 3 µM |  | CC(C)COc1cc(F)cc(-c2ccc(C(=O)NS(=O)(=O)N3CC[C@@H](N)C3)c(N3CCCC3(C)Cc3ccccc3)n2)c1 (single isomer, unassigned) [Compound 2325] |
| < 3 µM |  | CC1CN(c2ncccc2C(=O)NS(=O)(=O)c2cccc(OCC3CC=CCC3C)n2)C(C)(C)C1 (centres unmarked) [Compound 2001, N—[[6-[(6-methylcyclohex-3-en-1-yl)methoxy]-2-pyridyl]sulfonyl]-2-(2,2,4-trimethylpyrrolidin-1-yl)pyridine-3-carboxamide] |
|  | +++ (“+++” means <3 uM) | Cc1cc(C)c(Cn2nc(C(C)(C)C)cc2C(=O)NS(=O)(=O)c2cccc3[nH]ccc23)c(C)c1 [Compound 180, 5-tert-butyl-N-(1H-indol-4-ylsulfonyl)-2-[(2,4,6-trimethylphenyl)methyl]pyrazole-3-carboxamide] |
|  | +++ (“+++” means <3 uM) | CC(C1CCCCC1)n1nc(C(C)(C)C)cc1C(=O)NS(=O)(=O)c1cccc(N)c1 (centres unmarked) [Compound 287, N-(3-aminophenyl)sulfonyl-5-tert-butyl-2-(1-cyclohexylethyl)pyrazole-3-carboxamide] |
| 3 to 10 µM |  | COc1ccc(-c2ccc(C(=O)NS(=O)(=O)N3CC[C@H](N)C3)c(N3C[C@@H](C)CC3(C)C)n2)cc1 [Compound 2327, N-[(3S)-3-aminopyrrolidin-1-yl]sulfonyl-6-(4-methoxyphenyl)-2-[(4S)-2,2,4-trimethylpyrrolidin-1-yl]pyridine-3-carboxamide] |
|  | +++ (“+++” means <3 uM) | COc1ncccc1S(=O)(=O)NC(=O)c1ccc(C(C)(C)C)nc1Oc1c(C)cc(C)cc1C [Compound 191, 6-tert-butyl-N-[(2-methoxy-3-pyridyl)sulfonyl]-2-(2,4,6-trimethylphenoxy)pyridine-3-carboxamide] |
| 3 to 10 µM |  | COc1ccccc1-c1ccc(C(=O)NS(=O)(=O)N2CC[C@H](N)C2)c(N2C[C@@H](C)CC2(C)C)n1 [Compound 2666, N-[(3S)-3-aminopyrrolidin-1-yl]sulfonyl-6-(2-methoxyphenyl)-2-[(4S)-2,2,4-trimethylpyrrolidin-1-yl]pyridine-3-carboxamide] |
|  | +++ (“+++” means <3 uM) | COc1ncccc1S(=O)(=O)NC(=O)c1cc(C(C)(C)C)nn1Cc1c(C)cc(C)cc1C [Compound 759, 5-tert-butyl-N-[(2-methoxy-3-pyridyl)sulfonyl]-2-[(2,4,6-trimethylphenyl)methyl]pyrazole-3-carboxamide] |
| 3 to 10 µM |  | Cc1ccc(-c2ccc(C(=O)NS(=O)(=O)c3cccnc3N)c(N3C[C@@H](C)CC3(C)C)n2)cn1 [Compound 2363, N-[(2-amino-3-pyridyl)sulfonyl]-6-(6-methyl-3-pyridyl)-2-[(4S)-2,2,4-trimethylpyrrolidin-1-yl]pyridine-3-carboxamide] |
|  | +++ (“+++” means <3 uM) | CC(C)CN(C)c1ccc(-c2ccc(C(=O)NS(=O)(=O)c3cccc(N)n3)c(N3CC(C)CC3(C)C)n2)cn1 (centres unmarked) [Compound 412, N-[(6-amino-2-pyridyl)sulfonyl]-6-[6-[isobutyl(methyl)amino]-3-pyridyl]-2-(2,2,4-trimethylpyrrolidin-1-yl)pyridine-3-carboxamide] |
| < 3 µM |  | Cc1ccc(-c2ccc(C(=O)NS(=O)(=O)c3cccnc3N)c(N3C[C@@H](C)CC3(C)C)n2)cc1C [Compound 2017, N-[(2-amino-3-pyridyl)sulfonyl]-6-(3,4-dimethylphenyl)-2-[(4S)-2,2,4-trimethylpyrrolidin-1-yl]pyridine-3-carboxamide] |
| < 3 µM |  | CC1CN(c2ncccc2C(=O)NS(=O)(=O)c2cccc(OCC3COc4ccccc4O3)n2)C(C)(C)C1 (centres unmarked) [Compound 2115, N—[[6-(2,3-dihydro-1,4-benzodioxin-3-ylmethoxy)-2-pyridyl]sulfonyl]-2-(2,2,4-trimethylpyrrolidin-1-yl)pyridine-3-carboxamide] |
|  | + (“+” means greater than 10 uM) | Cc1cc(C)c(Oc2nc(-c3cccc(CO)c3)ccc2C(=O)NS(=O)(=O)c2cccc(N)n2)c(C)c1 [Compound 786, N-[(6-amino-2-pyridyl)sulfonyl]-6-[3-(hydroxymethyl)phenyl]-2-(2,4,6-trimethylphenoxy)pyridine-3-carboxamide] |
| 3 to 10 µM |  | CC#CCOc1cccc(S(=O)(=O)NC(=O)c2cccnc2N2CC(C)CC2(C)C)n1 (centres unmarked) [Compound 2741] |
|  | +++ (“+++” means <3 uM) | COc1cc(F)ccc1-c1ccc(C(=O)NS(=O)(=O)c2cc[nH]n2)c(Oc2c(C)cc(C)cc2C)n1 [Compound 405, 6-(4-fluoro-2-methoxy-phenyl)-N-(1H-pyrazol-3-ylsulfonyl)-2-(2,4,6-trimethylphenoxy)pyridine-3-carboxamide] |
|  | +++ (“+++” means <3 uM) | CC(C)(C)c1ccc(C(=O)NS(=O)(=O)c2ccc(N)cc2)c(C2CCCCC2)n1 [Compound 537, N-(4-aminophenyl)sulfonyl-6-tert-butyl-2-cyclohexyl-pyridine-3-carboxamide] |
| < 3 µM |  | CC1CN(c2ncccc2C(=O)NS(=O)(=O)c2cccc(OCCc3ccccc3F)n2)C(C)(C)C1 (centres unmarked) [Compound 2625, N—[[6-[2-(2-fluorophenyl)ethoxy]-2-pyridyl]sulfonyl]-2-(2,2,4-trimethylpyrrolidin-1-yl)pyridine-3-carboxamide] |
| < 3 µM |  | C[C@@H]1CN(c2nc(-c3ccc(F)c(F)c3)ccc2C(=O)NS(=O)(=O)c2ccc[nH]c2=O)C(C)(C)C1 [Compound 2284, 6-(3,4-difluorophenyl)-N-[(2-oxo-1H-pyridin-3-yl)sulfonyl]-2-[(4S)-2,2,4-trimethylpyrrolidin-1-yl]pyridine-3-carboxamide] |
| < 3 µM |  | CC1CN(c2ncccc2C(=O)NS(=O)(=O)c2cccc(Oc3c(F)cc(F)cc3F)n2)C(C)(C)C1 (centres unmarked) [Compound 2654, N—[[6-(2,4,6-trifluorophenoxy)-2-pyridyl]sulfonyl]-2-(2,2,4-trimethylpyrrolidin-1-yl)pyridine-3-carboxamide] |

| SMILES | EC30 [1] | EC30 [2] |
| --- | --- | --- |
| Cc1cc(OCC(C)C)nn1-c1ccc(C(=O)NS(=O)(=O)c2cccnc2N)c(N2C[C@@H](C)CC2(C)C)n1 [Compound 2238, N-[(2-amino-3-pyridyl)sulfonyl]-6-(3-isobutoxy-5-methyl-pyrazol-1-yl)-2-[(4S)-2,2,4-trimethylpyrrolidin-1-yl]pyridine-3-carboxamide] | < 3 µM |  |
| Cc1cc(C)c(Oc2nc(-c3ccc(Cl)c(OCC(C)C)c3)ccc2C(=O)NS(=O)(=O)c2ccc[nH]c2=O)c(C)c1 [Compound 136, 6-(4-chloro-3-isobutoxy-phenyl)-N-[(2-oxo-1H-pyridin-3-yl)sulfonyl]-2-(2,4,6-trimethylphenoxy)pyridine-3-carboxamide] |  | +++ (“+++” means <3 uM) |
